Assays:
Human Oct 3 = target: T1, Human Oct 3 (Homo sapiens, UniProt O75751); experiment: MPP uptake inhibition (transport competition) assay in CHO cells over-expressing a human Oct transporter; type: cell-based; settings: 100 μM aminosterol, radiolabelled MPP 0.01 μM, 1-second exposure
T1 sequence (O75751 1-556): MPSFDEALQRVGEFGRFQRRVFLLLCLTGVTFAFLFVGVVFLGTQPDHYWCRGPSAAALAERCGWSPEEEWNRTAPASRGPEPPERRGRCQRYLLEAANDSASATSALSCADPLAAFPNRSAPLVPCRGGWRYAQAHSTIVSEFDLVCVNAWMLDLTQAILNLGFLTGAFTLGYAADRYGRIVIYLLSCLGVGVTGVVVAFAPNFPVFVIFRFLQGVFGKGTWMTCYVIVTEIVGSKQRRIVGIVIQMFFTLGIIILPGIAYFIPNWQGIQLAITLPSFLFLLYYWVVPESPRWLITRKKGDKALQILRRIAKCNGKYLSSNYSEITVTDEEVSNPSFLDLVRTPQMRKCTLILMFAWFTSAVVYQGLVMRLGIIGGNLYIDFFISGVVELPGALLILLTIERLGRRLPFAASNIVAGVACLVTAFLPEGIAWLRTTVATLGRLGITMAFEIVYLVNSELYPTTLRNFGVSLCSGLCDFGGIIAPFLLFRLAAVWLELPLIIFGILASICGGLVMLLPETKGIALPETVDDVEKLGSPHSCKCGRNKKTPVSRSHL
Method: This example determines whether squalamine is a substrate for the organic cation transporter (Oct). This determination employed a standard transport competition assay, described in the literature (Lips, Volk et al. 2005).
Chinese hamster ovary cells, previously engineered to over-express a specific human Oct transporter were used in the assay. In this example, the effect of a specific concentration of an amino sterol is determined on the intracellular uptake of radiolabelled 1-methyl-4-phenylpyridine (MPP) (at 0.01 μM), measured after a 1-second exposure. […] IC50 refers to the concentration of squalamine or 1436 required to inhibit MPP uptake by 50%. Table 1 below describes the affinity of squalamine and Amino sterol 1436 for human organic cation transporters (Human Oct 1, Human Oct 2, and Human Oct 3) based upon the MPP uptake inhibition assay.

HUVECs = experiment: Thrombin induced stress fiber formation in endothelial cells; type: cell-based, human; settings: aminosterol 20 μM, thrombin 20 ng/ml, 2 hours
Method: The basic methods have been published (Williams, […] et al. 2001). HUVECs were grown on fibronectin-covered coverslips in EGM medium. […] Following a rinse, the cells were exposed to a 1:400 dilution of an FITC-goat antimurine antibody and 250 ng/ml TRITC phalloidin. The stained coverslips were visualized by fluorescence microscopy.

Yellow Fever = type: in vivo, Syrian hamsters; settings: squalamine 15 mg/kg/d s.c. qd, -24 h to 6 dpi
[1] = system: murine cytomegalovirus (MCMV); type: in vivo, Balb/c mice
[2] = system: Eastern Equine Encephalitis Virus; type: in vivo, hamsters (Syrian golden); settings: 10 mg/kg/day s.c.
[3] = system: Eastern Equine Encephalitis Virus; type: in vivo
Dengue virus = experiment: Dengue infection of HMEC-1 cells, immunohistochemical detection of viral E protein (Example 11); type: cell-based, human
Method: Cells were grown on uncoated glass cover-slips following a published protocol (Zamudio-Meza, Castillo-Alvarez et al. 2009). The cells were pretreated with squalamine for 2 hr at 37° C. prior to viral exposure; virus (multiplicity of infection of 3) remained in contact with cells for 30 minutes at 4° C., followed by 90 minutes at 37° C. The medium was then replaced with fresh medium lacking virus and squalamine and maintained at 37° C. for 48 hrs. Cells were fixed and processed for immunohistochemical detection of viral E protein. Viral E protein expression was used to monitor the early stages of infection.

[4] = system: human Hepatitis Delta virus; experiment: Hepatitis Delta virus replication in primary human hepatocytes, PCR (Example 13); type: cell-based
Method: Primary human hepatocytes were established in a 96 well microtiter plate. Squalamine was then added at concentrations of 20 or 60 μg/ml followed by an inoculum of Hep D virus, and then in culture for 3 hours, after which fresh medium was introduced, and the cells maintained in culture for 7 days. Viral growth was measured by PCR using viral specific primers and normalized to the total RNA extracted from each corresponding well.

[5] = system: human immunodeficiency virus (HIV)
RAW264.7 cell line = settings: squalamine 80 μM, 30 minutes; cited from earlier work
[6] = cited from earlier work
[7] = cited from earlier work; remark: listed apart in the source
[8] = system: Human umbilical endothelial cells; experiment: Kinetics of uptake of 3H-labelled aminosterol into endothelial cells; settings: for Uptake into endothelial cells: 1 μg/ml 3H-aminosterol
[9] = mouse, in vivo, ip, 10 mg/kg/day
[10] = 500 mg/m(2)/day, 5-day continuous i.v. infusion

CC(C)[C@@H](CC[C@@H](C)[C@H]1CC[C@H]2[C@@H]3[C@H](O)C[C@H]4C[C@@H](NCCCNCCCCN)CC[C@]4(C)[C@H]3CC[C@]12C)OS(=O)(=O)O [Squalamine, squalamine]
% Inhibition of MPP uptake caused by 100 μM (Human Oct 3): 60% | Disruption of thrombin induced stress fiber formation (HUVECs): Yes | Disruption of thrombin induced stress fiber formation (HUVECs; listed as squalamine): disrupt thrombin induced stress fiber formation | Survival (Yellow Fever): 70% | Viral titers in lung versus control ([1]; 10 mg/kg/day i.p.): trend toward reduction | Viral titers versus control cohort ([1]; day 7, spleen and liver, 10 mg/kg/day s.c. and i.p. groups): significantly lower | Viral titers, difference between groups ([1]; days 3 to 7, lungs and salivary glands): no significant differences | Effect on viral growth [1, 9]: little effect | Reduction in viral growth [1, 9]: greater than 10 fold | Virus in liver and spleen [1, 9]: undetectable | Virus in liver and spleen versus controls ([1]; mouse, in vivo, sc, 10 mg/kg/day): significantly reduced | Hamsters still alive at the end of treatment ([2]; -24 h to 6 days after infection): 6/10 | Plasma concentration of virus, lower than vehicle ([2]; first 3 days post infection): about 100 fold | Efficacy in mice [3]: ineffective | Inhibition of viral infection (Dengue virus; 46 ug/ml): about 80% | Inhibition of viral infection (Dengue virus; 60 μg/ml and higher): ~100% | Inhibition of viral infection (Dengue virus; 62 ug/ml): 100% | Cell viability (morphology, phase contrast) (Dengue virus; HMEC-1 cells at the effective squalamine concentrations): not diminished | Inhibition of viral infection (Dengue virus; about 40 μg/ml): 80% | Inhibition of viral infection (Dengue virus; concentrations above 40 ug/ml): almost completely inhibited | Inhibition of viral production ([4]; 20 μg/ml, added during initial stages of infection): 90% | Cytotoxicity in vitro ([4]; 60 μg/ml, primary human hepatocytes): cytotoxic | Inhibition of HIV infection [5]: about 50% | Toxicity towards the HeLa cells ([5]; 30 μg/ml): no evidence of toxicity | Localization of Lact-C2 probe (RAW264.7 cell line): did not alter the localization | Localization of R-pre probe (RAW264.7 cell line): displaced from its residence on the plasma membrane | Mean clearance [6, 10]: 2.67 liters/h/m(2) | Mean half-life [6, 10]: 9.46 h | Mean volume of distribution [6, 10]: 36.84 liters/m(2) | Steady-state concentrations [6, 10]: 20.08 micro g/ml | Patients with dose-limiting grade 4 hyperbilirubinemia and grade 3 neurosensory changes ([6]; 500 mg/m(2)/day): one of seven | Tolerability ([6]; 500 mg/m(2)/day): well tolerated | Patients who developed grade 4 hyperbilirubinemia ([6]; 700 mg/m(2)/day): two of three | Dose dependence of pharmacokinetics ([6]; 6 to 700 mg/m(2)/day): dose-proportional | Patients with dose-limiting toxicity (grade 3/4 arthralgia, myalgia, neutropenia) ([7]; 400 mg/m(2)/day with paclitaxel and carboplatin): two of three | Tolerability of the combination ([7]; continuous daily for 5 days, with paclitaxel and carboplatin on day 1): well tolerated | Uptake into endothelial cells ([8]; 5 min): 250 Molecules/cell (×10^−6) | Uptake into endothelial cells ([8]; 30 min): 400 Molecules/cell (×10^−6) | Uptake into endothelial cells ([8]; 60 min): 500 Molecules/cell (×10^−6) | Uptake into endothelial cells ([8]; 120 min): 500 Molecules/cell (×10^−6) | Uptake into endothelial cells ([8]; 180 min): 600 Molecules/cell (×10^−6) | Entry into the HUVEC relative to Aminosterol 1436 ([8]; squalamine versus Aminosterol 1436): over 2 orders of magnitude

Source: patent US20200000825A1, “METHODS AND COMPOSITIONS FOR TREATING AND PREVENTING VIRAL INFECTIONS” (ENTERIN LABORATORIES, INC., priority 2009, published 2020)
